Laboratory results published in patent publication US10870639B2, “Pyrimidine compounds and pharmaceutical compositions for preventing or treating cancers including the same” (HANMI PHARM. CO., LTD., priority 2018, dated 2020).

How the values were obtained:
[1] = Microsomal stability, human liver microsomes; assay type: in vitro ADME; settings: residual amount % after 1 hour, 37° C., 5 μM, 1 mg/ml microsomes, NADPH regenerating system
Experimental: To confirm the reactivity of the test substances with intra-hepatic CYP450 enzymes, 5 μM test substances and 1 mg/ml human liver microsomes were incubated for 1 hour at a temperature of 37° C. in the presence of an NADPH regenerating system. After 1 hour, acetonitrile was added to terminate the reaction, and the supernatant obtained by centrifugation was analyzed by HPLC. The remaining amount % was calculated using the following equation using the value of the reacted sample for 1 hour relative to the value of the 0-minute sample as the peak value obtained as an analysis result. (Peak value of the sample reacted for 1 hour/peak value of the sample at 0 minutes)×100=residual amount %

[2] = Microsomal stability, mice microsomes; assay type: in vitro ADME; settings: residual amount % after 1 hour, 37° C., 5 μM, NADPH regenerating system
[3] = molecular target: VEGFR2 (KDR) (Homo sapiens (Human), UniProt P35968); experiment: z-LYTE kinase assay, VEGFR2; assay type: biochemical; settings: compound concentration 100 nM
[4] = molecular target: SYK (Homo sapiens (Human), UniProt P43405); experiment: z-LYTE kinase assay, SYK; assay type: biochemical; settings: compound concentration 100 nM
Experimental: The SYK inhibitory activity of the compounds was evaluated based on z-LYTE technology developed by Thermo Fisher Scientific Inc. According to this evaluation method, signals of the fluorescence of FRET-peptides are measured, wherein fluorescence of a FRET-peptide which is phosphorylated by the […] and fluorescence of a non-phosphorylated peptide are measured to identify an activity with respect to kinase. […] The background signal was measured in the absence of proteins; a non-inhibitory signal was measured only when the solvent (1% DMSO) was added; and an evaluation compound was used at a concentration of 100 nM to calculate the SYK inhibitory activity of the evaluation compound as a percentage (%).

[5] = test system: MOLM-13; experiment: Cell growth inhibition (MTS), MOLM-13; assay type: cell-based; settings: Homo sapiens, MOLM-13, 72 h, incubation three days
Experimental: (§1) The human acute myelogenous leukemia […] cell line MOLM-13 (DSMZ no. ACC 554) was incubated in RPM11640 medium supplemented with 20% heat-inactivated FBS at a temperature of 37° C. The incubated cell line was prepared in an amount of 2.0×10^4 cells/100 μL, and then plated on a 96-well plate. The RPMI1640 medium was serially diluted with the test compounds at a concentration in a range of 1 μM to 0.01 nM at a ratio of 1:10. Subsequently, incubation was performed thereon for three days. For the human acute myelogenous leukemia cell line MV-4-11 cell line (ATCC® CRL-9591™), the cells were incubated at a temperature of 37° C. in IMDM medium supplemented with 10% FBS. The incubated cell line was prepared in an amount of 2×10^4 cells/100 μL, and then plated on a 96-well plate. The IMDM medium was treated with cascade dilution of three test compounds at a concentration in a range of 1 μM to 0.01 nM at a rate of 1/10. Subsequently, incubation was performed thereon for three days. MTS test was performed to measure cell viability, and the growth inhibition (GI50) value of the cell line was calculated using GraphPad Prism software.

[6] = test system: MV-4-11; experiment: Cell growth inhibition (MTS), MV-4-11; assay type: cell-based; settings: Homo sapiens, MV4-11, 72 h, incubation three days
Experimental: as §1

[7] = molecular target: FLT3 ITD (Homo sapiens, UniProt P36888, ITD); experiment: LanthaScreen kinase binding assay, FLT3 ITD
Experimental: (§2) The inhibitory activity of some of the compounds described above against FLT3-ITD, FLT3 wild type (WT), VEGFR2 (KDR), and SYK kinase was measured.
(§3) This experiment was carried out on a 384-well plate in conditions including 50 mM HEPES pH 7.5, 0.01% BRIJ-35, 10 mM MgCl2, 1 mM EGTA, and 1% DMSO.

[8] = molecular target: FLT3 WT (Homo sapiens (Human), UniProt P36888); experiment: LanthaScreen kinase binding assay, FLT3 WT; settings: kinase tracer-236, 50 nM to 0.05 nM
Experimental: as §2, §3

[9] = Pharmacokinetic profile in mice (p.o. and i.v.); assay type: in vivo; parameters: AUC: concentration or dose not given beside the values; settings: mouse, plasma
Experimental: After test substances were formulated by using the selected solvents, they were administered orally (p.o.) and intravenously (iv) once for each and a certain amount of blood was taken at a predetermined time, and plasma was isolated from the blood and a concentration analysis was performed thereon by LC-MS/MS. The AUC (drug concentration and an area under the curve) was calculated according to the linear-log trapezoidal summation formula by using the non-compartment analysis of the WinNonlin program through the plasma concentration curves over time. The bioavailability (BA) was calculated by applying the calculated AUC value to the following formula. BA (%)=(AUC p.o./AUC i.v.)×(Dose i.v./Dose p.o.)×100

VEGFR2 (KDR), sequence (P35968 20-1356): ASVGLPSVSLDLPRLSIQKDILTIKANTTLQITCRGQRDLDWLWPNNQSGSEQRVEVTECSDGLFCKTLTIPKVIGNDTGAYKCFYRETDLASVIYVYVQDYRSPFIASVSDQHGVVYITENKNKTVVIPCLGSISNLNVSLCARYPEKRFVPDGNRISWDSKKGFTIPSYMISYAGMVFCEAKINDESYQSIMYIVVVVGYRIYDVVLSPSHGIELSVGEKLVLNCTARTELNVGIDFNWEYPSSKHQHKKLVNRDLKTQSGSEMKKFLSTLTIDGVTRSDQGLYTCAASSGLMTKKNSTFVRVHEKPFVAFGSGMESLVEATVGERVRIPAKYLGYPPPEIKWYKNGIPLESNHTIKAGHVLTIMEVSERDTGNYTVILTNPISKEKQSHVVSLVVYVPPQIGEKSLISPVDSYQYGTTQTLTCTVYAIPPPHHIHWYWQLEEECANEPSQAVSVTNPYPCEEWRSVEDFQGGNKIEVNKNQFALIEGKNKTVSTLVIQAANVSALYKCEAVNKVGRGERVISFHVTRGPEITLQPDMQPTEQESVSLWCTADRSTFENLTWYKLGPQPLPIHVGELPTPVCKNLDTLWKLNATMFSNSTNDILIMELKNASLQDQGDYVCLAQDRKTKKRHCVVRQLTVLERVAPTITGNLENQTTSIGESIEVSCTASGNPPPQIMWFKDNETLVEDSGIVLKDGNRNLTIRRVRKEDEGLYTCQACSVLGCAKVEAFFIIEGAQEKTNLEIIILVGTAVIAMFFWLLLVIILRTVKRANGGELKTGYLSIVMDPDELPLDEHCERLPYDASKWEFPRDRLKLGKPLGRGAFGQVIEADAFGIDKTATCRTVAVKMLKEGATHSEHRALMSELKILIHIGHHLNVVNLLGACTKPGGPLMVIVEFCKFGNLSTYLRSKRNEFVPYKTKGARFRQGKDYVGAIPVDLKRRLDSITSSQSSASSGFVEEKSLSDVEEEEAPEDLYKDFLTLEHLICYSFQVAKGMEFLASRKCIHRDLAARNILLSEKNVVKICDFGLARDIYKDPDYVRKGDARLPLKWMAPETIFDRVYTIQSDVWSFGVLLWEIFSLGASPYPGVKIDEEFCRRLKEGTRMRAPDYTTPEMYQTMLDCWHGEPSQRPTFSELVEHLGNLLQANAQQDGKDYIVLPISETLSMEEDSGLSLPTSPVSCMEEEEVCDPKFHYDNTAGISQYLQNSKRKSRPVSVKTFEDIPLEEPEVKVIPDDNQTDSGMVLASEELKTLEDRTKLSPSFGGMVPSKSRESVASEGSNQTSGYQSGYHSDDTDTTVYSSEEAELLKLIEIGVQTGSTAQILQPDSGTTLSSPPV
FLT3 ITD, sequence (P36888 whole entry, looked up, change not shown): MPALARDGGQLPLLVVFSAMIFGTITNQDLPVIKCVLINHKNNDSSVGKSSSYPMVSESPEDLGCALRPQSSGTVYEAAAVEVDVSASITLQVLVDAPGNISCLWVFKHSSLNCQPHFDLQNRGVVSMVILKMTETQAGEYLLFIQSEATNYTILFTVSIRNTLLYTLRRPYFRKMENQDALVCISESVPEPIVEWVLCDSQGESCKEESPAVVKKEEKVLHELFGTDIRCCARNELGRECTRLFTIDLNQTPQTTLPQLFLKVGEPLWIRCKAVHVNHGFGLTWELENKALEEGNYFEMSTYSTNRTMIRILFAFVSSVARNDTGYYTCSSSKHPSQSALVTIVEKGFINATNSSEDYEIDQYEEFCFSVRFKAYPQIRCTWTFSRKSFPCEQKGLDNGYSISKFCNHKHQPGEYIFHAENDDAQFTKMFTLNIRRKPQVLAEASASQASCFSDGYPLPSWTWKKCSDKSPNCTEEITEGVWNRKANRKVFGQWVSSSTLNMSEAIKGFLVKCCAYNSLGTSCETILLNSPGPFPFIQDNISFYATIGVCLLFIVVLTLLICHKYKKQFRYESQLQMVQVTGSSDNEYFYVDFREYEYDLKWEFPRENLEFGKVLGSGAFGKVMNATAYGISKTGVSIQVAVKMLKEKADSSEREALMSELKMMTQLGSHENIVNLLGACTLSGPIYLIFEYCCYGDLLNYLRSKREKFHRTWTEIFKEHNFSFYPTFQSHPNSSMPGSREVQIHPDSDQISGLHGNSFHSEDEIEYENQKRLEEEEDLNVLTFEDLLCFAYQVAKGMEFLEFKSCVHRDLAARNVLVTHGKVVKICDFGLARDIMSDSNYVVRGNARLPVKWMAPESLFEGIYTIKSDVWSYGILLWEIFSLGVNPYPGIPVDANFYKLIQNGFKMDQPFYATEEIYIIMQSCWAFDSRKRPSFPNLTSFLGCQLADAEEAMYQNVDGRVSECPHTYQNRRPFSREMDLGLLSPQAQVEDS
FLT3 WT, sequence (P36888 27-993): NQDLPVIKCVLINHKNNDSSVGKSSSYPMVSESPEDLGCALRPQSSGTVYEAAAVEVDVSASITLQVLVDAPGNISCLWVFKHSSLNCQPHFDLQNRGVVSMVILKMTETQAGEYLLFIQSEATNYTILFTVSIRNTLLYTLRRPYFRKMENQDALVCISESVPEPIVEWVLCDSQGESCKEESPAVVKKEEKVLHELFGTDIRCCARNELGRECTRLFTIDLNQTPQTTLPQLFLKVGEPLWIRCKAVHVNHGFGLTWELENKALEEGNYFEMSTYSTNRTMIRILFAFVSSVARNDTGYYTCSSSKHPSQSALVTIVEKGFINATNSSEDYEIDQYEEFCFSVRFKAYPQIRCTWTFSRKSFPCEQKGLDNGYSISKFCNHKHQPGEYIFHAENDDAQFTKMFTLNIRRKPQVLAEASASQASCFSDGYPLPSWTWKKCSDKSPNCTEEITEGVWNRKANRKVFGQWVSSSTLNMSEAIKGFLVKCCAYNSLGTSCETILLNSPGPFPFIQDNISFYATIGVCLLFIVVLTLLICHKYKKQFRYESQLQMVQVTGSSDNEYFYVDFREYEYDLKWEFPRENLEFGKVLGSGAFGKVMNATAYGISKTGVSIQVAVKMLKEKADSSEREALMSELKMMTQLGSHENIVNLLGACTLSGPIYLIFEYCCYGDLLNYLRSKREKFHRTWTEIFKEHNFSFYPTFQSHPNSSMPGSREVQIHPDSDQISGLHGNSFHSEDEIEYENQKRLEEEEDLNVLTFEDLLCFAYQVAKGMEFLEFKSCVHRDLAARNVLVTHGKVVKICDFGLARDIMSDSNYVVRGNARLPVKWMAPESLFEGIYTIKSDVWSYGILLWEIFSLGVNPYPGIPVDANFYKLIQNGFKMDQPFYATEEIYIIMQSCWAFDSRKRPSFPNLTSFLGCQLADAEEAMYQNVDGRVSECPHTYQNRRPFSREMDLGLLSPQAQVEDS

Compound | Human microsomal stability (%) [1] [%] | Mice microsomal stability (%) [2] [%] | inhibition at 0.1 µM [3] [%] | inhibition at 0.1 µM [4] [%] | GI50 [5] [nM] | GI50 [6] [nM] | IC50 [7] [nM] | IC50 [8] [nM] | AUC ([9]; LC-MS/MS, non-compartment analysis, read-out: Area under the curve (AUC) of mice) [ng·h/mL] | bioavailability ([9]; po, BA=(AUC p.o./AUC i.v.)×(Dose i.v./Dose p.o.)×100) [%]
C[C@@H]1CN(Cc2cc(Nc3ncc(Cl)c(-c4c[nH]c5cc(F)ccc45)n3)cc(C3CC3)c2)C[C@H](C)N1 [Example 1, 5-chloro-N-(3-cyclopropyl-5-(((3R,5S)-3,5-dimethylpiperazine-1-yl)methyl)phenyl)-4-(6-fluoro-1H-indole-3-yl)pyrimidine-2-amine] | – | – | 95 | 73 | 4 | 1.2 | – | – | – | –
Cc1ccc2c(-c3nc(Nc4cc(CN5C[C@@H](C)N[C@@H](C)C5)cc(C5CC5)c4)ncc3Cl)c[nH]c2c1 [Example 8, 5-chloro-N-(3-cyclopropyl-5-(((3R,5S)-3,5-dimethylpiperazine-1-yl)methyl)phenyl)-4-(6-methyl-1H-indole-3-yl)pyrimidine-2-amine] | – | – | 100 | 95 | 5.2 | 1.3 | – | – | – | –
Cc1ccc2c(-c3nc(Nc4cc(CN5C[C@@H](C)NC(C)(C)C5)cc(C5CC5)c4)ncc3Cl)c[nH]c2c1 [Example 25, (R)-5-chloro-N-(3-cyclopropyl-5-((3,3,5-trimethylpiperazine-1-yl)methyl)phenyl)-4-(6-methyl-1H-indole-3-yl)pyrimidine-2-amine] | – | – | – | – | 8.5 | 9.3 | 20 | 2.3 | 21800 | 21.2

The next lines start with results.

Human microsomal stability (%) [1] [%] | Mice microsomal stability (%) [2] [%] | inhibition at 0.1 µM [3] [%] | inhibition at 0.1 µM [4] [%] | GI50 [5] [nM] | GI50 [6] [nM] | Compound | IC50 [7] [nM] | IC50 [8] [nM] | AUC ([9]; LC-MS/MS, non-compartment analysis, read-out: Area under the curve (AUC) of mice) [ng·h/mL] | bioavailability ([9]; po, BA=(AUC p.o./AUC i.v.)×(Dose i.v./Dose p.o.)×100) [%]
49 | 29 | – | – | – | – | CCN(CC)C1CCN(c2cc(Nc3ncc(Cl)c(-c4c[nH]c5cc(C)ccc45)n3)cc(C3CC3)c2)CC1 [Control Compound 6, reference compound] | – | – | – | –
– | – | 71 | 78 | 0.8 | 0.5 | Cc1ccc2c(-c3nc(Nc4cc(CN5C[C@@H](C)N(CCO)[C@@H](C)C5)cc(C5CC5)c4)ncc3Cl)c[nH]c2c1 [Example 5, 2-((2R,6S)-4-(3-((5-chloro-4-(6-methyl-1H-indole-3-yl)pyrimidine-2-yl)amino)-5-cyclopropylbenzyl)-2,6-dimethylpiperazine-1-yl)ethane-1-ol] | 7.2 | – | – | –
72 | 69 | – | – | – | – | Cc1ccc2c(-c3nc(Nc4cc(CN5C[C@@H](C)NC6(CC6)C5)cc(C5CC5)c4)ncc3Cl)c[nH]c2c1 [Example 27, (R)-5-chloro-N-(3-cyclopropyl-5-((5-methyl-4,7-diazaspiro[2.5]octan-7-yl)methyl)phenyl)-4-(6-methyl-1H-indole-3-yl)pyrimidine-2-amine] | – | – | – | –
